Measured values taken from PMC9167584, “Calotropin and corotoxigenin 3-O-glucopyranoside from the desert milkweed Asclepias subulata inhibit the Na^+/K^+-ATPase activity” (PeerJ, 2022).
Where “and” joins values, the source holds several entries; their conditions need not be identical. Equal values may be shown once.

How the values were obtained:
[1] = tested on: porcine brain Na^+/K^+-ATPase; test: Kinetic analysis of Na+/K+-ATPase inhibition (Michaelis-Menten, Lineweaver-Burk); format: biochemical; conditions: for Type of inhibition: Lineweaver-Burk plot, 0.1 and 1.0 μM inhibitor; for Ki: uncompetitive inhibition model, ATP as substrate
Method: The Michaelis-Menten kinetic parameters Km and Vmax of porcine brain Na^+/K^+-ATPase were determined from the initial velocities by modifying the ATP concentrations from 0.125 to 4.0 mM using the enzymatic standard conditions previously mentioned. Initial rates were recorded for 15 min in intervals of 3 min. The measurements were done in the absence or presence of inhibitors. The concentration of Na^+, K^+, and Mg^2+ ions remained constant. The initial velocity when the A. subulata cardenolides were tested was recorded for 15 min. Kinetic analyses were carried out in the presence or absence of two different concentrations of cardenolides (0.1 and 1.0 μM) to determine the nature of the inhibition of the Na^+/K^+-ATPase. All experiments were performed in triplicate. The experimental data were fitted to the Michaelis-Menten equation by non-linear regression analysis. The type of inhibition was obtained by Lineweaver-Burk double reciprocal plots using GraphPad Prism software version 8 (GraphPad Software Inc., San Diego, CA, USA).

[2] = target: brain porcine Na^+/K^+-ATPase; test: In vitro inhibitory assay of Na+/K+-ATPase (colorimetric Pi release); format: biochemical; conditions: brain porcine enzyme; mean ± SD; triplicate; read-out: Inhibition of Na^+/K^+-ATPase IC50
Method: We used the inhibitory assay method described by [Mugpasao et al. (2014)]. The enzymatic activity of Na^+/K^+-ATPase was determined by colorimetric quantification of orthophosphate (Pi) released during the ATP hydrolysis according to the method of [Taussky, Shorr & Kurzmann (1953)]. The inhibition assays were done using commercial brain porcine Na^+/K^+-ATPase. Protein concentration was determined according to the Bradford method ([Bradford, 1976]) using bovine serum albumin as standard. As inhibitors, we used cardenolides ouabain, calotropin, and C3OG. The cardenolide ouabain was used as a reference molecule. The reaction was done in a 96-wells plate, adding 10 μL of Na^+/K^+-ATPase solution (0.5 U/mL) with 4 μL of NaCl/KCl solution (35 mM of KCl and 1.65 M of NaCl), 70 μL of Tris-HCl buffer (30 mM Tris-HCl, 0.5 mM of EDTA and 7.8 mM of MgCl2) at 37 °C and 30 min with 6 μL either dimethyl sulfoxide (DMSO) or test compounds on each well. The range concentrations of inhibitors were 100.0–0.001 μM of ouabain and 1000.0–0.01 μM of calotropin and C3OG. Then, 20 μL of ATP solution 22 mM was added to each well, and the reaction solution was incubated at 37 °C for 15 min.
Next, we added 30 μL of trichloroacetic acid (TCA) at 30% (w/v) to each well to block the reaction. The 96-wells plate was mixed slightly and centrifuged at 3,000 rpm for 15 min. Finally, 50 μL of the supernatant was transferred to another 96-well plate and were coated with 100 μL of Taussky-Shorr solution. The absorbance was read at 660 nm in a microplate reader ThermoScientific Multiskan (Thermo Fisher, Vantaa, Finland) after incubation of 5 min at room temperature, protected from the light. The color intensity was proportional to the release of orthophosphate, indicating ATP hydrolysis and the Na^+/K^+-ATPase activity. The inhibition of the enzymatic activity by cardenolides was managed in the percentage of Na^+/K^+-ATPase activity compared with control. The data of inhibitory Na^+/K^+-ATPase activity were expressed in IC50 and standard deviation. All experiments were performed in triplicate. […]

[3] = tested on: A549, PC-3, and LS-180; set-up: method as in Rascón-Valenzuela et al. (2015); conditions: human cancer cell lines A549, PC-3, LS-180; ref Rascón-Valenzuela et al. (2015); cited from earlier work
[4] = target: porcine cerebral cortex Na^+/K^+-ATPase; set-up: method as in Agrawal et al. (2021); conditions: porcine cerebral cortex enzyme; ref Agrawal et al. (2021); cited from earlier work
[5] = target: Na^+/K^+-ATPase; set-up: method as in Ren et al., 2020; conditions: reference inhibitor; ref Ren et al., 2020; cited from earlier work
[6] = in presence of 0.1 μM inhibitor
[7] = in presence of 1.0 μM inhibitor

SMILES	Type of inhibition [1]	Vmax [1, 6]	Vmax [1, 7]	Ki [1]	IC50 [2]	IC50 (cytotoxicity) [3]	IC50 [4]	IC50 [5]
C[C@]12CCC3C(CCC4C[C@@H](O[C@@H]5O[C@H](CO)[C@@H](O)[C@H](O)[C@H]5O)CC[C@@]43C=O)[C@@]1(O)CC[C@@H]2C1=CC(=O)OC1 (stereo partly shown) [C3OG, corotoxigenin 3-O-glucopyranoside]	Uncompetitive	1.47 ± 0.08 μmolPi/mg/min	0.80 ± 0.06 μmolPi/mg/min	500 nM and 520 nM	870 ± 200 nM	micromolar order	–	–
C[C@@H]1C[C@H](O)[C@]2(O)O[C@@H]3C[C@@]4(C=O)[C@@H](CC[C@@H]5[C@@H]4CC[C@]4(C)[C@@H](C6=CC(=O)OC6)CC[C@]54O)C[C@H]3O[C@@H]2O1 [Calotropin, calotropin]	Uncompetitive	2.17 ± 0.10 μmolPi/mg/min	0.77 ± 0.10 μmolPi/mg/min	200 ± 30 nM	270 ± 60 nM	nanomolar order	270 nM	–
C[C@@H]1O[C@@H](O[C@H]2C[C@@H](O)[C@]3(CO)[C@H]4[C@H](O)C[C@]5(C)[C@@H](C6=CC(=O)OC6)CC[C@]5(O)[C@@H]4CC[C@]3(O)C2)[C@H](O)[C@H](O)[C@H]1O [Ouabain, ouabain octahydrate, reference compound]	uncompetitive	2.11 ± 0.14 μmolPi/mg/min	0.66 ± 0.04 μmolPi/mg/min	160 nM	120 ± 20 nM	–	–	–
C[C@H]1O[C@@H](O[C@H]2[C@@H](O)C[C@H](O[C@H]3[C@@H](O)C[C@H](O[C@H]4CC[C@@]5(C)[C@H](CC[C@@H]6[C@@H]5C[C@@H](O)[C@]5(C)[C@@H](C7=CC(=O)OC7)CC[C@]65O)C4)O[C@@H]3C)O[C@@H]2C)C[C@H](O)[C@@H]1O [digoxin]	–	–	–	–	–	–	–	230 nM
